Source: ChEMBL document CHEMBL1926641, “Farinamycin, a quinazoline from Streptomyces griseus” (J Nat Prod, 2011)
The source made the active and inactive calls.

What was measured:
HUVEC = test: Antiproliferative activity against human HUVEC cells at <= 50 ug/ml; format: cell-based
[1] = test system: Sporobolomyces salmonicolor; test: Antimicrobial activity against Sporobolomyces salmonicolor SBUG 549 at <= 100 ug/ml by agar diffusion assay; format: functional, organism-based
Pseudomonas aeruginosa = test: Antimicrobial activity against Pseudomonas aeruginosa K 799/61 at <= 100 ug/ml by agar diffusion assay; format: functional, organism-based
K562 = test: Cytotoxicity against human K562 cells at <= 50 ug/ml; format: functional, cell-based
Staphylococcus aureus = test: Antimicrobial activity against Staphylococcus aureus SG 511 at <= 100 ug/ml by agar diffusion assay; format: functional, organism-based
HeLa = test: Cytotoxicity against human HeLa cells at <= 50 ug/ml; format: functional, cell-based
Bacillus subtilis = test: Antimicrobial activity against Bacillus subtilis ATCC 6633 at <= 100 ug/ml by agar diffusion assay; format: functional, organism-based
Candida albicans = test: Antifungal activity against Candida albicans BMSY 212 at <= 100 ug/ml by agar diffusion assay; format: functional, organism-based
Mycolicibacterium vaccae = test: Antimicrobial activity against Mycobacterium vaccae IMET 10670 at <= 100 ug/ml by agar diffusion assay; format: functional, organism-based
Escherichia coli = test: Antimicrobial activity against Escherichia coli SG 458 at <= 100 ug/ml by agar diffusion assay; format: functional, organism-based
Penicillium chrysogenum = test: Antifungal activity against Penicillium notatum JP 36 at <= 100 ug/ml by agar diffusion assay; format: functional, organism-based

Measured: Activity

NC(=O)C1=C(N)[C@@H](O)[C@H](O)[C@@H](Nc2cc(-c3nc4c(O)cccc4c(=O)[nH]3)ccc2O)C1=O [FARINAMYCIN]
Non-toxic: HUVEC
inactive: [1] | Pseudomonas aeruginosa | K562 | Staphylococcus aureus | HeLa | Bacillus subtilis | Candida albicans | Mycolicibacterium vaccae | Escherichia coli | Penicillium chrysogenum
